Source: patent publication US20260041723A1, “BACTERIOPHAGE COMPOSITIONS FOR TREATING STAP[…]” (priority 2020, published 2026)

Tested on: S. aureus strains
Format: cell-based
Conditions: resistant or intermediate strains, in the presence of AP-SA02
Protocol: Grey boxes indicate lines on graph depicted in FIG. 5B. […] Vancomycin, 16 μg/mL; AP-SA02, 0.1 pg/mL.
FIG. 6A is data showing bacterial growth measured by turbidity (absorbance at 600 nm) in the presence of AP-SA02 and vancomycin in a checkerboard assay. Grey boxes show lines on graph depicted in FIG. 6B. […] Vancomycin, 2 μg/mL.
Standard therapy for subjects with a S. aureus infection includes vancomycin and daptomycin. Since subjects who receive AP-SA02 are likely to be on these therapies, the effect of AP-SA02 on these antibiotics and vice versa was assessed. Using the standard checkerboard assay, the minimum inhibitory concentration of each antimicrobial alone or in combination with each other, was used to calculate whether two antimicrobials are synergistic, antagonistic, or indifferent (Table 3).

`CN[C@H](CC(C)C)C(=O)N[C@H]1C(=O)N[C@@H](CC(N)=O)C(=O)N[C@H]2C(=O)N[C@H]3C(=O)N[C@H](C(=O)N[C@H](C(=O)O)c4cc(O)cc(O)c4-c4cc3ccc4O)[C@H](O)c3ccc(c(Cl)c3)Oc3cc2cc(c3O[C@@H]2O[C@H](CO)[C@@H](O)[C@H](O)[C@H]2O[C@H]2C[C@](C)(N)[C@H](O)[C@H](C)O2)Oc2ccc(cc2Cl)[C@H]1O` [vancomycin] was tested, and the “breakpoint for vancomycin in the presence of phage” value was 0.5 to 2 µg/mL.
